pIC50: −log10 of the molar value.
How the values were obtained:
Escherichia coli [1] = experiment: Inhibition of Escherichia coli MurE assessed as residual activity at 100 uM after 15 mins by malachite green assay
Escherichia coli [2] = experiment: Inhibition of Escherichia coli MurD assessed as residual activity at 100 uM after 15 mins by malachite green assay
Escherichia coli [3] = experiment: Inhibition of Escherichia coli MurE assessed as residual activity at 250 uM after 15 mins by malachite green assay
[4] = Inhibition of Escherichia coli MurE after 15 mins by malachite green assay
[5] = Inhibition of Escherichia coli MurD
[6] = Inhibition of MurD
Escherichia coli [7] = experiment: Inhibition of Escherichia coli MurD assessed as residual activity at 250 uM after 15 mins by malachite green assay
Staphylococcus aureus = experiment: Antibacterial activity against Staphylococcus aureus ATCC 29213; assay type: functional
Pseudomonas aeruginosa = experiment: Antibacterial activity against Pseudomonas aeruginosa ATCC 27853; assay type: functional
Escherichia coli [8] = experiment: Antibacterial activity against Escherichia coli ATCC 25922; assay type: functional
Enterococcus faecalis = experiment: Antibacterial activity against Enterococcus faecalis ATCC 29212; assay type: functional
[9] = Inhibition of MurE assessed as residual activity
[10] = Inhibition of Escherichia coli MurD after 15 mins by malachite green assay

Cc1cc(C=C2C(=O)NC(=S)NC2=O)c(C)n1-c1cc(C(=O)O)cc(C(=O)O)c1
Activity (Escherichia coli [1]): 76%
Activity (Escherichia coli [2]): 99%

COc1ccc(-c2ccc(/C=C3\SC(=S)N(C(CCC(=O)O)C(=O)O)C3=O)o2)c([N+](=O)[O-])c1 (stereo not drawn)
Activity (Escherichia coli [3]): 70%
Activity (Escherichia coli [1]): 70%
Activity (Escherichia coli [2]): 87%

Cc1cc(/C=C2/C(=O)NC(=S)N(c3cccc(Cl)c3Cl)C2=O)c(C)n1-c1cc(C(=O)O)cc(C(=O)O)c1
Activity (Escherichia coli [2]): 83%
pIC50 [4]: 4.10

CCc1ccccc1N1C(=O)/C(=C\c2cc(C)n(-c3cc(C(=O)O)cc(C(=O)O)c3)c2C)C(=O)NC1=S
Activity (Escherichia coli [1]): 55%
Activity (Escherichia coli [2]): 92%

O=C(O)CC[C@@H](NS(=O)(=O)c1ccc2cc(OCCCc3ccccc3)ccc2c1)C(=O)O
pIC50 [5]: 3.74

C[C@@H](NS(=O)(=O)Cc1ccc([N+](=O)[O-])cc1)C(=O)N[C@H](C)P(=O)(O)C[C@H](CCC(=O)O)C(=O)O
pIC50 [5]: 4.11

COc1cccc(/C=C2\SC(=S)N(C(CCC(=O)O)C(=O)O)C2=O)c1 (stereo not drawn)
Activity (Escherichia coli [1]): 89%
Activity (Escherichia coli [2]): 98%

Cc1cc(/C=C2/C(=O)NC(=S)N(c3cccc(Cl)c3)C2=O)c(C)n1-c1cc(C(=O)O)cc(C(=O)O)c1
Activity (Escherichia coli [2]): 90%
pIC50 [4]: 3.98

CCCCOc1ccc2cc(S(=O)(=O)N[C@@H](CCC(=O)O)C(=O)O)ccc2c1
pIC50 [6]: 3.15

O=C(O)CC[C@H](NS(=O)(=O)c1ccc2cc(O)ccc2c1)C(=O)O
pIC50 [5]: 4.05

O=C(O)c1cc(C(=O)O)cc(-c2ccc(/C=C3/SC(=S)N(NC(=O)c4cccs4)C3=O)o2)c1
Activity (Escherichia coli [3]): 81%
Activity (Escherichia coli [7]): 82%

O=C(O)CC[C@@H](NC(=O)c1ccc(CNc2ccc(/C=C3\SC(=S)NC3=O)cc2)cc1)C(=O)O
MBC (Staphylococcus aureus): > 128 µg/mL
MIC (Staphylococcus aureus): > 128 µg/mL
MBC (Pseudomonas aeruginosa): > 128 µg/mL
MIC (Pseudomonas aeruginosa): > 128 µg/mL
MBC (Escherichia coli [8]): > 128 µg/mL
MIC (Escherichia coli [8]): > 128 µg/mL
MBC (Enterococcus faecalis): > 128 µg/mL
MIC (Enterococcus faecalis): > 128 µg/mL

N#Cc1ccc(COc2ccc3cc(S(=O)(=O)N[C@H](CCC(=O)O)C(=O)O)ccc3c2)cc1
pIC50 [5]: 3.87

CCOc1ccc2[nH]c(SCC(=O)Nc3cc(C(=O)O)cc(C(=O)O)c3)nc2c1
Activity (Escherichia coli [1]): 95%
Activity (Escherichia coli [2]): 89%

Cc1cc(/C=C2/C(=O)NC(=S)N(c3ccc(Cl)cc3)C2=O)c(C)n1-c1cc(C(=O)O)cc(C(=O)O)c1
Activity (Escherichia coli [2]): 69%
pIC50 [4]: 4.01

C[C@@H](NC(=O)/C=C/c1ccc2c(c1)OCO2)P(=O)(O)C[C@H](CCC(=O)O)C(=O)O
pIC50 [5]: 4.02

CCOC(=O)COc1ccc2cc(S(=O)(=O)N[C@H](CCC(=O)O)C(=O)O)ccc2c1
pIC50 [5]: 3.72

O=C(CSc1nc2ccccc2s1)Nc1cc(C(=O)O)cc(C(=O)O)c1
Activity (Escherichia coli [1]): 94%
Activity (Escherichia coli [2]): 97%

O=C(O)CCC(C(=O)O)N1C(=O)/C(=C/c2ccc(-c3ccc([N+](=O)[O-])cc3)o2)SC1=S (stereo not drawn)
Activity (Escherichia coli [2]): 74%
pIC50 [4]: 4.21

C[C@@H](NS(=O)(=O)Cc1ccc([N+](=O)[O-])cc1)C(=O)N[C@H](C)P(=O)(O)C[C@@H](CC(=O)O)C(=O)O
pIC50 [5]: 4.11
Activity [9]: 8%

O=C(O)CC[C@@H](NC(=O)c1ccc(/C=C2\SC(=S)NC2=O)cc1)C(=O)O
MBC (Staphylococcus aureus): > 128 µg/mL
MIC (Staphylococcus aureus): > 128 µg/mL
MBC (Pseudomonas aeruginosa): > 128 µg/mL
MIC (Pseudomonas aeruginosa): > 128 µg/mL
MBC (Escherichia coli [8]): > 128 µg/mL
MIC (Escherichia coli [8]): > 128 µg/mL
MBC (Enterococcus faecalis): > 128 µg/mL
MIC (Enterococcus faecalis): > 128 µg/mL

CCCCOc1ccc2cc(S(=O)(=O)N[C@H](CCC(=O)O)C(=O)O)ccc2c1
pIC50 [6]: 3.56

COC(=O)CC[C@@H](NC(=O)c1ccc(/C=C2\SC(=S)NC2=O)cc1)C(=O)OC
MBC (Staphylococcus aureus): > 128 µg/mL
MIC (Staphylococcus aureus): > 128 µg/mL
MBC (Pseudomonas aeruginosa): > 128 µg/mL
MIC (Pseudomonas aeruginosa): > 128 µg/mL
MBC (Escherichia coli [8]): > 128 µg/mL
MIC (Escherichia coli [8]): > 128 µg/mL
MBC (Enterococcus faecalis): > 128 µg/mL
MIC (Enterococcus faecalis): > 128 µg/mL

CCOc1ccc2nc(SCC(=O)Nc3cc(C(=O)O)cc(C(=O)O)c3)sc2c1
Activity (Escherichia coli [1]): 84%
Activity (Escherichia coli [2]): 98%

Cc1cc(/C=C2/C(=O)NC(=S)N(c3ccccc3)C2=O)c(C)n1-c1cc(C(=O)O)cc(C(=O)O)c1
pIC50 [4]: 4.05

CCCCCOc1ccc2cc(S(=O)(=O)N[C@H](CCC(=O)O)C(=O)O)ccc2c1
pIC50 [5]: 3.62

O=C(O)c1cc(C(=O)O)cc(-c2ccc(/C=C3/SC(=S)N(c4ccc5c(c4)OCO5)C3=O)o2)c1
pIC50 [10]: 3.57
pIC50 [4]: 4.49

— ChEMBL document CHEMBL1151879, “Discovery of novel benzene 1,3-dicarboxylic acid inhibitors of bacterial MurD and MurE ligases by structure-based virtual screening approach” (Bioorg Med Chem Lett, 2009)
